Targets include PDE5 (h) (non-selective) (Homo sapiens, UniProt O76074); D2S (h) (Homo sapiens, UniProt P14416); GABAB(1b) (h) (Homo sapiens, UniProt Q9UBS5).
The target in another experiment is MMP-9 (h) (Homo sapiens, UniProt P14780). The experiment is described as follows: biochemical. The class given is biochemical.
The next experiment concerns CD-1 mice. Description: Forced swim test. To be noted: 20 mg/kg IP, 45 min prior, CD-1 mice.
Another experiment deals with T1, 5-HT transporter (h) (Homo sapiens, UniProt P31645).
T1 construct: host or cells: CHO cells
Format: binding.

The target of experiment [1] is Ca2+ channel (L, diltiazem site) (benzothiazepines) (Rattus norvegicus, UniProt P22002). Format: binding.
A further experiment concerns the target ATPase (Na+/K+). The experiment is described as follows: enzyme assay. The class given is biochemical, porcine.
Another experiment has as its target T2, ZAP70 kinase (h) (Homo sapiens, UniProt P43403).
T2 construct: host or cells: insect cells
T2 sequence (P43403 1-619): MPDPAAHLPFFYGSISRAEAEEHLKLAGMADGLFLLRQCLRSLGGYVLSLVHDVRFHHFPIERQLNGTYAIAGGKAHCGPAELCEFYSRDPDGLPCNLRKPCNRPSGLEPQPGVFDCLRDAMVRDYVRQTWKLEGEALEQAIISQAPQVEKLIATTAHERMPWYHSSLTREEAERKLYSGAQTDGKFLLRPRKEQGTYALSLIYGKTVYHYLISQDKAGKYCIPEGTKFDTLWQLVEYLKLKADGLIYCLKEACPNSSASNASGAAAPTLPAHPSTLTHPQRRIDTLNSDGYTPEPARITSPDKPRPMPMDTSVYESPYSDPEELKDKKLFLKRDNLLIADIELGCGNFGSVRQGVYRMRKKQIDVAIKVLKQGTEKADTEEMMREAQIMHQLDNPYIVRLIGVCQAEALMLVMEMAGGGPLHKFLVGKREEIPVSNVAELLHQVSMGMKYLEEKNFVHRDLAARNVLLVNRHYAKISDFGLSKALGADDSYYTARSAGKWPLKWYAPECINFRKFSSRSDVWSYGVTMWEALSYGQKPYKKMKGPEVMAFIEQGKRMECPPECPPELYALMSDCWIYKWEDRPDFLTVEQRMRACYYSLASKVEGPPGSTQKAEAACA
The experiment is described as follows: biochemical.

The target in experiment [2] is T3, FLT-1 kinase (h) (VEGFR1) (Homo sapiens, UniProt P17948).
T3 construct: host or cells: Sf9 cells
Description: enzyme assay. The class given is biochemical.

The test system of a further experiment is NMRI mice. The experiment is described as follows: Locomotor activity. The class given is in vivo, mouse. To be noted: 5 mg/kg subcutaneously. On the procedure:
NMRI mice were habituated to their room for at least 2 weeks after the delivery and kept under standard conditions in groups of 4–5 animals per cage. Food and water were available ad libitum.
Spontaneous motility and rearing were measured by an automated system (Coulbourn Instruments, USA). Animals were introduced into transparent square cages (40 cm length) that are equipped with 2 light barrier systems in order to monitor the movements as well as rearing behavior automatically. The movements of the animals were recorded for 30 minutes. At the end of the experiment, the animals were sacrificed via isofluorane inhalation and subsequent decapitation.

The target of another experiment is T4, 5-HT2A (h) (Homo sapiens, UniProt P28223).
T4 construct: host or cells: HEK-293 cells
The class given is binding.

A further experiment concerns the target T5, MT3 (ML2) (Mesocricetus auratus, UniProt A0ABM2YAB8).
T5 construct: tissue Cerep; host or cells: hamster brain
T5 sequence (A0ABM2YAB8 1-231): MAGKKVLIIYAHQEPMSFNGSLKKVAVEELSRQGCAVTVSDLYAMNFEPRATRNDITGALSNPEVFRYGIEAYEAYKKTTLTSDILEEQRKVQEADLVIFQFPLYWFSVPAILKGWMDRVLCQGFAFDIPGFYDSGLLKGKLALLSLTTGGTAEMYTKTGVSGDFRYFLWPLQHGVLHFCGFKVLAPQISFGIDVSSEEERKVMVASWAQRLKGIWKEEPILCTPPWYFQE
The class given is binding, hamster.

Another experiment deals with T6, MT1 (ML1A) (h) (Homo sapiens, UniProt P48039).
T6 construct: host or cells: CHO cells
Format: binding.

The target of a further experiment is T7, 5-HT3 (h) (Homo sapiens, UniProt P46098).
T7 sequence (P46098 24-478): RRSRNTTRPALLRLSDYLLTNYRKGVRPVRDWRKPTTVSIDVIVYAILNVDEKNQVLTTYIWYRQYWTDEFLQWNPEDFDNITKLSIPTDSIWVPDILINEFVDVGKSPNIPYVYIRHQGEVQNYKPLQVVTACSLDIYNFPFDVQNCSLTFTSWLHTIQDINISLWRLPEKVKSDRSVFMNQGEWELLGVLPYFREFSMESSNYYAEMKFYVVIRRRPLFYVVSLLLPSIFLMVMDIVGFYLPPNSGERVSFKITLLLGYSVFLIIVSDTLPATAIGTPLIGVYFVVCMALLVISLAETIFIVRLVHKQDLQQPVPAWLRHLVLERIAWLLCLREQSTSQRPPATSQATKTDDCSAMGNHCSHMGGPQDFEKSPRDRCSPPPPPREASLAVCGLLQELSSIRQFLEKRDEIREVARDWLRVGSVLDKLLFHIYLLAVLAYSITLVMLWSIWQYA

The target in a further experiment is PDE3A (h) (Homo sapiens, UniProt Q14432). Description: biochemical.
A further experiment concerns the target T8, V1a (h) (Homo sapiens, UniProt P37288).
T8 construct: host or cells: CHO cells
The class given is binding.

A further experiment deals with p38α kinase (h) (Homo sapiens, UniProt Q16539). The experiment is described as follows: enzyme assay. Format: biochemical.
The next experiment has as its target T9, M2 (h) (Homo sapiens, UniProt P08172).
T9 sequence (P08172 1-466): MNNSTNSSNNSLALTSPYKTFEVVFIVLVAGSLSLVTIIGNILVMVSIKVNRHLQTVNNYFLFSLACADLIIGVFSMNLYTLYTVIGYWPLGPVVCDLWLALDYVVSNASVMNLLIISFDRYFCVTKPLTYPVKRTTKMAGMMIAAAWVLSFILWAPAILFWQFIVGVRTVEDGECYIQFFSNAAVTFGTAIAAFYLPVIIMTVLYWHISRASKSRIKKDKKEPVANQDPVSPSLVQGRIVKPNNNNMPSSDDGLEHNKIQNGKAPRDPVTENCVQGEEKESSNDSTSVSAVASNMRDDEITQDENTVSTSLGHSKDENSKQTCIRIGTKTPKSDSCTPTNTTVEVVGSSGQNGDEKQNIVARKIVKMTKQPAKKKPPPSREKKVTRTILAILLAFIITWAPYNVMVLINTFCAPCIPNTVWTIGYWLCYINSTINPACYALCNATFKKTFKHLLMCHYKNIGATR

The target in a further experiment is Ca2+ channel (N) (Rattus norvegicus, UniProt Q02294). Description: biochemical. The class given is binding.

Values joined by “and” are separate entries in the source; they are usually repeats but may differ in a detail not shown here. Identical values can stand only once. Starred links: 1 amine or outer side, 2 acyl side, 3 side chain; linkers in the order of their positions; H or OH if unused. Positions of bridges follow the written chain, without caps; N, C: chain ends. Residues, ends and D or L forms follow the SMILES beside them. X1 = O=C(CC1(S[*:2])CCCCC1)[*:1]

p38α kinase (h), sequence (Q16539 whole entry): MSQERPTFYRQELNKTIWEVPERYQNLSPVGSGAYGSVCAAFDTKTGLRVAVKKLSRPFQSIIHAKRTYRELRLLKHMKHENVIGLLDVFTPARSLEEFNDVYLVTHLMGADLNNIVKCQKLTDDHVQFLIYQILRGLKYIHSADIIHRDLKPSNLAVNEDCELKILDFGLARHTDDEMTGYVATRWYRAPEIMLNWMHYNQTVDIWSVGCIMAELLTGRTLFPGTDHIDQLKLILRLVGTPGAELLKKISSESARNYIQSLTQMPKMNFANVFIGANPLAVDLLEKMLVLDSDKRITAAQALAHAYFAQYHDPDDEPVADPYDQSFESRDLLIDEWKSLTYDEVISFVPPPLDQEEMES
T1 sequence (P31645 whole entry): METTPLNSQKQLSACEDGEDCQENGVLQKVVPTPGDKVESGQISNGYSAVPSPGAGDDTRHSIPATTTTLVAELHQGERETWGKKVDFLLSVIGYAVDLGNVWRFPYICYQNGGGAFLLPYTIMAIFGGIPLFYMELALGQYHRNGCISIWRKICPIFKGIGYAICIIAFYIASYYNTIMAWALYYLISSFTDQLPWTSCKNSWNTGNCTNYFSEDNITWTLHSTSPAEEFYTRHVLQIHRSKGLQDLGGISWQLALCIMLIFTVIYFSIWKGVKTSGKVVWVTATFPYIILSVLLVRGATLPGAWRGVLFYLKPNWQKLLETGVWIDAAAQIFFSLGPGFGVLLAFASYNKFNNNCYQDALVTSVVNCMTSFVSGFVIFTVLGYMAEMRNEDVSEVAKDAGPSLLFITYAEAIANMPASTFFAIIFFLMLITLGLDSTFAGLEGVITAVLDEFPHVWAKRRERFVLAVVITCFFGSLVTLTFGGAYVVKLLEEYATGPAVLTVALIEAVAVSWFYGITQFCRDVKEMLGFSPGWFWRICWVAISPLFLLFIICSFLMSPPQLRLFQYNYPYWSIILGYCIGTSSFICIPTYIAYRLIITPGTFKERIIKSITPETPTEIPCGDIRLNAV
T8 sequence (P37288 whole entry): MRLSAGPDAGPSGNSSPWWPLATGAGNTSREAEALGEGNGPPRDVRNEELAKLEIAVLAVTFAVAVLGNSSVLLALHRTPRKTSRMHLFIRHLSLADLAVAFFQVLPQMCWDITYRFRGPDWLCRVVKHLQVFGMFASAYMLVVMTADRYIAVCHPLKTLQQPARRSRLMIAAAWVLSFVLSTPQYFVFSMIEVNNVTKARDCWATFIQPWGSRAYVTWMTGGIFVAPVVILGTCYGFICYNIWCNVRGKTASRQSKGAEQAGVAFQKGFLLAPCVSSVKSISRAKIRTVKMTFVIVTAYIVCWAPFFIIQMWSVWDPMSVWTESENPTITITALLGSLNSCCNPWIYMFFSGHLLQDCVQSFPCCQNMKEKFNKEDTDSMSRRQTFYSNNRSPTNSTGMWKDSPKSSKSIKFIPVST
T3 sequence (P17948 27-1338): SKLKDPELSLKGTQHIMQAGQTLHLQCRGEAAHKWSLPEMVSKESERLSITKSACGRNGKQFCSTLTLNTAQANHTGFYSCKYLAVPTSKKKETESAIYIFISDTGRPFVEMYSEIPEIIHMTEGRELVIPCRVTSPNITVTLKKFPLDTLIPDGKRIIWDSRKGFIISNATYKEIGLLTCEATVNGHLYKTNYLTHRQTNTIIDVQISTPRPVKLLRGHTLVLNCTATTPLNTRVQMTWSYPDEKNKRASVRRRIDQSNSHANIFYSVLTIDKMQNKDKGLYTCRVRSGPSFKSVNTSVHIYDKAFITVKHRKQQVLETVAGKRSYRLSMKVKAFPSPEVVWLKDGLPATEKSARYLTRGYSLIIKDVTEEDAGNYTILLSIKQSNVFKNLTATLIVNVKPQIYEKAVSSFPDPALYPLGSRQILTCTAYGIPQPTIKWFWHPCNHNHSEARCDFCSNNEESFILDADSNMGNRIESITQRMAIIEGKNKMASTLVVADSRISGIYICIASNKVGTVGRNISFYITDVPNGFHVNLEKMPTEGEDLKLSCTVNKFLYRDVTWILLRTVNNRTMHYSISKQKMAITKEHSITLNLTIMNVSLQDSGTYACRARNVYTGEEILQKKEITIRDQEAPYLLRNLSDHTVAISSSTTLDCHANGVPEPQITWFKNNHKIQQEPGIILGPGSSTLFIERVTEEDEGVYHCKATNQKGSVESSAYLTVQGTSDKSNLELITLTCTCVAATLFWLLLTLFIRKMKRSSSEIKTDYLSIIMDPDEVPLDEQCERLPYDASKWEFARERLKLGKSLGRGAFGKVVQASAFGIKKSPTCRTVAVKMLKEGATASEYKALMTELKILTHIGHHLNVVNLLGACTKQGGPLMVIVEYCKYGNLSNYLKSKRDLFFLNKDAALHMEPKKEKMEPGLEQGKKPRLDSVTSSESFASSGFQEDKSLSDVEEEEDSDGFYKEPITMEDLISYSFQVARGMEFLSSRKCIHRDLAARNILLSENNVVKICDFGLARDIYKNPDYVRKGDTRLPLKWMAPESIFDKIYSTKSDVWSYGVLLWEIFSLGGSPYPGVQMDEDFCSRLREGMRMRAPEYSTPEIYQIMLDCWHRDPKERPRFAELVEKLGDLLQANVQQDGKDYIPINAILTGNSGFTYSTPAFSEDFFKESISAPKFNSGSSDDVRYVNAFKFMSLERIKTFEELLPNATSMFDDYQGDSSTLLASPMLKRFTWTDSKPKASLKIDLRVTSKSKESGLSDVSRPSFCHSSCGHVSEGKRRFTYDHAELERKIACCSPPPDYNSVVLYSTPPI
D2S (h), sequence (P14416 1-414 isoform P14416-2): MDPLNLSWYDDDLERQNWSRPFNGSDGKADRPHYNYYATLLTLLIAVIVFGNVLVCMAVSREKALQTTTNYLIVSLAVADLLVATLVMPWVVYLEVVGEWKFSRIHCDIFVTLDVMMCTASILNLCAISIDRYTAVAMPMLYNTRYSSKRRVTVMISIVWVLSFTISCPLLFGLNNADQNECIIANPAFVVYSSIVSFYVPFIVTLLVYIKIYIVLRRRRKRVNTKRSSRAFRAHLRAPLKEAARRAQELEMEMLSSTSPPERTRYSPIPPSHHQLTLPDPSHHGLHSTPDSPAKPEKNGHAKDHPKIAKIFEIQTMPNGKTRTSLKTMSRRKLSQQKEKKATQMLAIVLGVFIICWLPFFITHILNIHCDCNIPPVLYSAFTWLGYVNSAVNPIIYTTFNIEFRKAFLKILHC
T4 sequence (P28223 whole entry): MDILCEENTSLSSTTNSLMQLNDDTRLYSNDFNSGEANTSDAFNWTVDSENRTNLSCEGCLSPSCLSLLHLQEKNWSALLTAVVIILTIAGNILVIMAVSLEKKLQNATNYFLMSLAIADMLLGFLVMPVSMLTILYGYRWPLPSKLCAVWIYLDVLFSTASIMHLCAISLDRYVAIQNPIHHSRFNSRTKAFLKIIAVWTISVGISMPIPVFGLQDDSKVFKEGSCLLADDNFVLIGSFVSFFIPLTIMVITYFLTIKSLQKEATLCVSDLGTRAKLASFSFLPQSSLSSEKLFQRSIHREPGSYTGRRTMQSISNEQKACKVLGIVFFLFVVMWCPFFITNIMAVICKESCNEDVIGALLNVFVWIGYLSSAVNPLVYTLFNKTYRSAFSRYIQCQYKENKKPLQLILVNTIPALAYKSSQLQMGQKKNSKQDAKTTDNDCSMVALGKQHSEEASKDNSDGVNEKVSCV
T6 sequence (P48039 whole entry): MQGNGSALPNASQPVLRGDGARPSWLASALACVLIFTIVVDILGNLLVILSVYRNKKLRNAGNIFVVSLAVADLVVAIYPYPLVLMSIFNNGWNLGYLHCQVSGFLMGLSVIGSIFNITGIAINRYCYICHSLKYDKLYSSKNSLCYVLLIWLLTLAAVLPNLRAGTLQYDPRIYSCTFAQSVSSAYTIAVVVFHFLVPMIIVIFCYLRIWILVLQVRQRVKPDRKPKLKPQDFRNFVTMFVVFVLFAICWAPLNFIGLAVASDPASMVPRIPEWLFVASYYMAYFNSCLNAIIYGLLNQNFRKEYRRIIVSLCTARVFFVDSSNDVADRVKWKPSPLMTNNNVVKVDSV
MMP-9 (h), sequence (P14780 94-707): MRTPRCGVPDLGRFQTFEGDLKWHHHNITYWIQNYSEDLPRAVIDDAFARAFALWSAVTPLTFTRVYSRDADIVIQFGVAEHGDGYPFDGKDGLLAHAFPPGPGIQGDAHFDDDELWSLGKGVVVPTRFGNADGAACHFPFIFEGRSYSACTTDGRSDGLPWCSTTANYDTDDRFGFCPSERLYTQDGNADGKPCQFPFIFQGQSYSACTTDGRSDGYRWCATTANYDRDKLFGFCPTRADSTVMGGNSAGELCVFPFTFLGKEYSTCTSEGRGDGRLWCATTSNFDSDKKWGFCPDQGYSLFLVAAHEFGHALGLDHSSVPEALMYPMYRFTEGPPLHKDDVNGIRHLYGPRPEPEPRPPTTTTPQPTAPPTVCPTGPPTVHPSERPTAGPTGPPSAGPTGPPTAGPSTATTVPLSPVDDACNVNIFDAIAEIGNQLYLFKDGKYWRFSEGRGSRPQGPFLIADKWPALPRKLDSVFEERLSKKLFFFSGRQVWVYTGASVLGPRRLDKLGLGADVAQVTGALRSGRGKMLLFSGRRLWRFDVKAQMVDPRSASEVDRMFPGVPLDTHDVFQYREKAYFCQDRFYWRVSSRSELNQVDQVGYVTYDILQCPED

On MMP-9 (h), `CNC(=O)[C@H](Cc1c[nH]c2ccccc12)NC(=O)[C@@H](CC(=O)NO)CC(C)C` [GM6001, reference compound] yielded a nH of 1.6.

Regarding `CN(C)CCCN1c2ccccc2CCc2ccccc21` [imipramine, reference compound], the immobility time entry with CD-1 mice is “decreased immobility time”. The molecule further registered a nH at 5-HT transporter (h) of 0.9.

Regarding `COc1ccc([C@@H]2Sc3ccccc3N(CCN(C)C)C(=O)[C@@H]2OC(C)=O)cc1` [diltiazem, reference compound], in experiment [1], the nH was 1.2.

One may read the IC50 as the concentration that inhibits the measured activity by half. `C[C@@H]1O[C@@H](O[C@H]2C[C@@H](O)[C@]3(CO)[C@H]4[C@H](O)C[C@]5(C)[C@@H](C6=CC(=O)OC6)CC[C@]5(O)[C@@H]4CC[C@]3(O)C2)[C@H](O)[C@H](O)[C@H]1O` [ouabain, reference compound] registered an IC50 against ATPase (Na+/K+) of 1200 nM.

In the case of `OCCN(CCO)c1nc(N2CCCCC2)c2nc(N(CCO)CCO)nc(N3CCCCC3)c2n1` [dipyridamole], the nH on PDE5 (h) (non-selective) is 1.7 and 1.0.

As to `CN[C@@H]1C[C@H]2O[C@@](C)([C@@H]1OC)n1c3ccccc3c3c4c(c5c6ccccc6n2c5c31)C(=O)NC4` [staurosporine, reference compound], the nH on ZAP70 kinase (h) was 1.2; in experiment [2], 1.4.

At D2S (h), (+)butaclamol came in with a nH of 1.1.

For the molecule `C[C@H](NC[C@H](O)CP(=O)(O)CC1CCCCC1)c1ccc(Cl)c(Cl)c1` [CGP 54626], the nH at GABAB(1b) (h) is reported as 0.9.

Take `c1ccc(C2(N3CCCCC3)CCCCC2)cc1` [PCP, Phencyclidine, reference compound]: in the experiment with NMRI mice, the locomotor activity entry was “substantially increased activity”.

`O=C(c1ccc(F)cc1)C1CCN(CCn2c(=O)[nH]c3ccccc3c2=O)CC1` [ketanserin, reference compound] showed a nH on 5-HT2A (h) of 1.4.

In general, Ki refers to the equilibrium dissociation constant of an inhibitor or competing ligand from its target. Regarding `COc1ccc2[nH]cc(CCNC(C)=O)c2c1` [melatonin, reference compound], at MT3 (ML2), the IC50 was 38 nM and 260 nM; the Ki was 37 nM and 250 nM. This molecule also came in with a nH on MT1 (ML1A) (h) of 1.0.

The molecule `CN1[C@@H]2CC[C@H]1C[C@@H](OC(=O)c1cc(Cl)cc(Cl)c1)C2` [MDL 72222] registered a nH at 5-HT3 (h) of 1.1.

With `Cc1[nH]c(=O)c(C#N)cc1-c1ccncc1` [milrinone, reference compound], the nH at PDE3A (h) is 1.0.

With `COc1ccc(C[C@@H]2NC(=O)CC3(CCCCC3)SSC[C@@H](C(=O)N3CCC[C@H]3C(=O)N[C@@H](CCCNC(=N)N)C(=O)NCC(N)=O)NC(=O)[C@H](CC(N)=O)NC(=O)[C@H](CCC(N)=O)NC(=O)[C@H](Cc3ccccc3)NC2=O)cc1` [[d(CH2)51,Tyr(Me)2]-AVP, reference compound] (Y(Me)FQNCPRG-NH2; linker N-5 via X1 (inferred)), on V1a (h), the nH was 0.9.

At p38α kinase (h), `Oc1ccc(-c2nc(-c3ccncc3)c(-c3ccc(F)cc3)[nH]2)cc1` [SB202190, reference compound] showed a nH of 1.4.

For `COc1ccccc1CNCCCCCCNCCCCCCCCNCCCCCCNCc1ccccc1OC` [methoctramine], the nH at M2 (h) came to 0.9.

Turning to `C[C@@H](O)[C@@H]1NC(=O)[C@H](Cc2ccc(O)cc2)NC(=O)[C@@H]2C[C@@H](O)CN2C(=O)[C@H](CC(N)=O)NC(=O)[C@@H]2CSSC[C@@H]3NC(=O)[C@H](CO)NC(=O)[C@H](CO)NC(=O)CNC(=O)[C@@H]4C[C@@H](O)CN4C(=O)[C@H](CO)NC(=O)[C@H](CCCCN)NC(=O)[C@@H](N)CSSC[C@H](NC(=O)[C@H](CSSC[C@@H](C(=O)N[C@@H](Cc4ccc(O)cc4)C(N)=O)NC(=O)[C@H](CCCN=C(N)N)NC(=O)[C@H](CCCCN)NC1=O)NC(=O)[C@H](CC(N)=O)NC(=O)[C@H](Cc1ccc(O)cc1)NC(=O)[C@H](CO)NC(=O)[C@H]([C@@H](C)O)NC(=O)[C@@H]1C[C@@H](O)CN1C(=O)[C@H](CO)NC3=O)C(=O)N[C@@H](CCCN=C(N)N)C(=O)N[C@@H](CO)C(=O)N2` [ω-conotoxin GVIA, reference compound], on Ca2+ channel (N), 0.0012 nM corresponded to half-maximal inhibition (IC50).
